From PMC11002876, “KcsA-Kv1.x chimeras with complete ligand-binding sites provide improved predictivity for screening selective Kv1.x blockers” (The Journal of Biological Chemistry, 2024)
Like-named read-outs stand apart in the source and are kept apart here. Where a SMILES comes first, the peptide text is derived from it.

What was measured:
[1] = molecular target: T1, KcsA-Kv1.3 T+F chimera (Streptomyces lividans, UniProt P0A334, A54D/A57S/G53D/G56T/I60S/L59F/L81M/Q58G/R52A/R64D/T61S/Y62I/Y82H); experiment: Phage-binding competition assay, KcsA-Kv1.3 T+F; design: species or system human Kv1.3 turret and filter in Streptomyces lividans KcsA; conditions: for rank order of affinities, competition, KcsA-Kv1.3 T+F: Fig. 6F; for Rank, T+F chimera (Kv1.3): rank by competition IC50 among Vm24, HgTx1, KTX1
T1 construct: made in house; host or cells: E. coli C41(DE3) (pET45b)
T1 sequence (P0A334 1-160 R52A/G53D/A54D/G56T/A57S/Q58G/L59F/I60S/T61S/Y62I/R64D/L81M/Y82H): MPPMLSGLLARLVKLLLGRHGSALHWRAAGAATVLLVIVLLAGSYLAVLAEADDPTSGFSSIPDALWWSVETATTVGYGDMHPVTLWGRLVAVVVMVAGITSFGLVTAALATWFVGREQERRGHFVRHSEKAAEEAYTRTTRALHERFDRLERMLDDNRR
Method: Phage stock solutions were diluted to working concentration with phage resuspension buffer supplemented with 2 mM DDM. For protein immobilization, the following amounts were used in a final volume of 50 μl/well: wt KcsA, 0.1 μg; KcsA-Kv1.1 T-only, 0.005 μg; KcsA-Kv1.1 T+F, 0.02 μg; KcsA-Kv1.2 T-only, 0.01 μg; KcsA-Kv1.2 T+F, 0.1 μg; KcsA-Kv1.3 T-only, 0.01 μg; and KcsA-Kv1.3 T+F, 0.1 μg. Protein samples were diluted in 50 μl of storage buffer (20 mM Tris pH8.0, 300 mM KCl, 2 mM DDM) and were added to the designated wells of a Pierce Clear, 96-Well Nickel Coated Plate (15442, Thermo Fisher Scientific), then incubated for 1 h at room temperature on a horizontal shaker at 130 rpm. The plate was blocked for 1 h at room temperature with 180 μl/well TBS-BSA supplemented with 1 mM DDM. Following blocking, the wells were washed 4× with washing buffer (300 μl TBS-Tween, 0.1% v/v) using a Wellwash Versa microplate washer (Thermo Fisher Scientific); then 50 μl phage solution (in TBS-BSA-Tween, 0.1% v/v, 2 mM DDM) at determined phage concentration was added to the wells and incubated for 1 h at room temperature on a horizontal shaker. The plate was washed 4× with washing buffer, then 50 μl anti-M13 IgG HRP (MA5-36125, Invitrogen) diluted to 1:2500 in TBS-Tween (0.1% v/v) was added to the wells and incubated for 1 h at room temperature. The plate was washed again 4× with 300 μl/well washing buffer. Finally, 50 μl/well 1-Step Ultra TMB-ELISA solution (34028, Thermo Fisher Scientific) was added to the wells, and the developing signal was stopped with 50 μl 1M HCl after 5 to 10 min. The light absorbance signal was read at 450 nm with Byonoy absorbance 96 plate reader (Byonoy GmbH).
For protein immobilization, the following amounts were used in a final volume of 50 μl/well: KcsA-Kv1.1 T-only, 0.005 μg; KcsA-Kv1.1 T+F, 0.01 μg; KcsA-Kv1.2 T-only, 0.025 μg; KcsA-Kv1.2 T+F, 0.0125 μg; KcsA-Kv1.3 T-only, 0.01 μg; and KcsA-Kv1.3 T+F, 0.1 μg. Protein samples were diluted in storage buffer. Binding of given concentrations of relevant ligand-displaying phages quantified by light absorbance ([…]) were investigated in a similar manner as in phage ELISA-binding assay, while different concentrations of competing toxin test substances were applied simultaneously. The results were converted to percent inhibitions (percent displacement) of the indicator phage binding, and relative affinities of the tested toxins were assessed by plotting percent displacements against log concentrations and determining half maximal inhibitory concentrations (IC50) by sigmoidal curve fitting using “Sigmoidal dose-response (variable slope) with least squares method” algorithm in GraphPad Prism 8 using the following equation: Y=Bottom+Top−Bottom/1+10^(LogEC50−×)⋅HillSlope

[2] = system: human Kv1.3 channel (hKv1.3); type: cell-based; conditions: native peptides at 0.1 nM; human lymphocytes; Figs. 6A, S1
Method: Human Kv1.3 currents were recorded from activated peripheral blood mononuclear cells (see below) 3 to 4 days after activation. Heparinized human peripheral venous blood was obtained from healthy volunteers. Mononuclear cells were separated through Histopaque-1077 density gradient centrifugation. Collected cells were washed twice with Ca^2+- and Mg^2+-free Hanks’ solution containing 25 mM Hepes buffer, pH 7.4. Cells were cultured for 3 to 4 days in 24-well culture plates in a 5% CO2 incubator at 37 °C, in RPMI 1640 medium supplemented with 10% fetal calf serum (Sigma-Aldrich), 100 μg/ml penicillin, 100 μg/ml streptomycin, and 2 mM L-glutamine (density, 0.5 × 10^6 cells per ml). Phytohemagglutinin A (Sigma-Aldrich) was added to the medium at 10 μg/ml to amplify the Kv1.3 expression. Cells were washed gently twice with 2 ml of ECS for the patch-clamp experiments.
Conventional whole-cell patch-clamp electrophysiology was used to record ionic currents. Micropipettes were pulled from GC150F-7.5 borosilicate capillaries (Harvard Apparatus) with tip diameters between 0.5 and 1 μm resulting in a tip resistance of 2 to 8 MΩ in the extracellular (bath) solution. All measurements were carried out by using Axopatch 200B amplifier connected to a personal computer using Axon Digidata 1550A data acquisition hardware and Pclamp10.7 software (https://support.moleculardevices.com/s/article/Axon-pCLAMP-10-Electrophysiology-Data-Acquisition-Analysis-Software-Download-Page). The holding potential was −120 mV. Records were discarded when leak at the holding potential was >10% of peak current at the test potential. Experiments were performed at room temperature (20–24 °C). Before analysis, whole-cell current traces were corrected for ohmic leakage and digitally filtered with a three-point boxcar smoothing filter.
Solutions: all salts and components of the solutions were purchased from Sigma Aldrich. […]
Native peptides, phage-expressed peptides, and positive controls used for them were dissolved in ECS supplemented with 0.1 mg/ml bovine serum albumin (BSA; Sigma-Aldrich Hungary). Bath perfusion around the measured cell with different extracellular solutions was achieved using a gravity flow micro perfusion system using a rate of 0.5 ml/min. […]
Voltage protocols: For measurement of Kv1.1 to 1.3 currents, voltage steps to +50 mV were applied from a holding potential of −120 mV and the peak current was measured every 15 s. […] The remaining current fraction at a given molar concentration was calculated as I/I0, where I0 is the peak current in the absence and I is the peak current at equilibrium block or […] after ∼2 min perfusion by the investigated peptide/phage.

[3] = HgTx1-phage competition, T+F KcsA-Kv1.3, value given in figure, sigmoidal fit to means of three replicates, read-out: IC50 (Fig. 6F)

Compound	IC50 [1, 3] [nM]	rank order of affinities, competition, KcsA-Kv1.3 T+F ([1]; HgTx1-phage competition)	Rank, T+F chimera (Kv1.3) [1]	rank order of blocking of native Kv1.3 [2]	IC50 ([1]; displacement of HgTx1-phage, KcsA-Kv1.3 T+F 0.1 μg/well on nickel-coated plate, phage ELISA absorbance, mean ± SD (n = 3), read-out: IC50, T+F chimera (Kv1.3)) [nM]
CC[C@H](C)[C@@H]1NC(=O)CNC(=O)[C@H](Cc2ccccc2)NC(=O)[C@H](CCC(N)=O)NC(=O)[C@H](C)NC(=O)[C@H](CCCCN)NC(=O)[C@@H]2CSSC[C@@H](C(=O)N[C@@H](Cc3ccc(O)cc3)C(=O)N3CCC[C@H]3C(=O)N[C@@H](Cc3c[nH]cn3)C(=O)O)NC(=O)[C@H](CCCCN)NC(=O)[C@@H]3CSSC[C@H](NC(=O)[C@H](CCC(N)=O)NC(=O)[C@H](CCCCN)NC(=O)[C@@H]4CCCN4C(=O)[C@H](CO)NC(=O)[C@H]([C@@H](C)O)NC(=O)[C@@H](NC(=O)[C@H](CCCCN)NC(=O)[C@@H](NC(=O)[C@H](CC(=O)O)NC(=O)[C@@H](NC(=O)[C@@H](NC(=O)[C@@H](N)[C@@H](C)O)C(C)C)[C@@H](C)CC)C(C)C)CSSC[C@H](NC(=O)[C@H](CCCCN)NC(=O)[C@H](C)NC(=O)CNC(=O)[C@H](C)NC(=O)[C@H](CCCNC(=N)N)NC1=O)C(=O)N[C@@H](CCSC)C(=O)N[C@@H](CC(N)=O)C(=O)NCC(=O)N[C@@H](CCCCN)C(=O)N3)C(=O)N[C@@H](CC(C)C)C(=O)N1CCC[C@H]1C(=O)N1CCC[C@H]1C(=O)N2 [HgTx1, Hongotoxin-1] (HELM PEPTIDE1{T.V.I.D.V.K.C.T.S.P.K.Q.C.L.P.P.C.K.A.Q.F.G.I.R.A.G.A.K.C.M.N.G.K.C.K.C.Y.P.H}$PEPTIDE1,PEPTIDE1,7:R3-29:R3|PEPTIDE1,PEPTIDE1,13:R3-34:R3|PEPTIDE1,PEPTIDE1,17:R3-36:R3$$$V2.0; N-terminus and C-terminus assumed)	0.107	Vm24 > HgTx1 > KTX1	2	Vm24 > HgTX1 > KTX1	–
CC[C@H](C)[C@H](NC(=O)[C@H](CCC(=O)O)NC(=O)[C@@H](NC(=O)CN)C(C)C)C(=O)N[C@@H](CC(N)=O)C(=O)N[C@H](C(=O)N[C@@H](CCCCN)C(=O)N[C@H]1CSSC[C@@H]2NC(=O)[C@H](CCCCN)NC(=O)CNC(=O)[C@H](Cc3ccccc3)NC(=O)[C@H](CCCNC(=N)N)NC(=O)[C@H](CCSC)NC(=O)CNC(=O)[C@H](C)NC(=O)[C@H](CC(=O)O)NC(=O)[C@H](CCCCN)NC(=O)[C@@H]3CSSC[C@@H](C(=O)N[C@H](C(=O)N4CCC[C@H]4C(=O)N[C@@H](CCCCN)C(=O)O)[C@@H](C)O)NC(=O)[C@H](Cc4c[nH]cn4)NC(=O)[C@H](CSSC[C@H](NC(=O)[C@H](CCC(N)=O)NC(=O)[C@@H]4CCCN4C(=O)[C@H](CO)NC(=O)CNC(=O)[C@H](CO)NC1=O)C(=O)N[C@@H](CC(C)C)C(=O)N[C@@H](CCCCN)C(=O)N1CCC[C@H]1C(=O)N3)NC(=O)[C@H](CCCCN)NC(=O)[C@H](CCCNC(=N)N)NC(=O)[C@H](CC(N)=O)NC(=O)[C@H](CCSC)NC2=O)C(C)C [KTX1, Kaliotoxin-1]	–	Vm24 > HgTx1 > KTX1	3	Vm24 > HgTX1 > KTX1	98.2
CC[C@H](C)[C@H](NC(=O)[C@H](C)NC(=O)[C@H](C)NC(=O)[C@H](C)N)C(=O)N[C@@H](CO)C(=O)N[C@H]1CSSC[C@@H]2NC(=O)[C@H](CCCCN)NC(=O)CNC(=O)[C@H](CC(N)=O)NC(=O)[C@H](CCCCN)NC(=O)[C@@H]3CSSC[C@@H](C(N)=O)NC(=O)[C@H](Cc4ccc(O)cc4)NC(=O)[C@H](Cc4ccc(O)cc4)NC(=O)[C@@H]4CSSC[C@H](NC(=O)[C@H](CCCCN)NC(=O)[C@@H]5CCCN5C(=O)[C@@H]5CCCN5C(=O)[C@H](CSSC[C@H](NC(=O)[C@H](CCCCN)NC(=O)[C@H](CCCNC(=N)N)NC(=O)[C@H](CC(N)=O)NC(=O)[C@H](CCSC)NC2=O)C(=O)N[C@@H](CCCCN)C(=O)N4)NC(=O)[C@H](CCC(=O)O)NC(=O)[C@@H]2CCCN2C(=O)[C@H](CO)NC(=O)CNC(=O)[C@H](C(C)C)NC1=O)C(=O)N[C@@H](CCCNC(=N)N)C(=O)N[C@@H](C)C(=O)N[C@@H](CCC(N)=O)C(=O)NCC(=O)N3 [Vm24, Vm24 toxin]	0.0359	Vm24 > HgTx1 > KTX1	1	Vm24 > HgTX1 > KTX1	–
